Literature values, collected in paper PMC11577316, “Tuning the Properties of Rigidified Acyclic DEDPA^2– Derivatives for Application in PET Using Copper-64” (Inorganic Chemistry, 2024).
Like-named read-outs stand apart in the source and are kept apart here. Marks after values point to notes of the source that are not given here. Blank lines part the entries; values can stand above or below the compound they belong to.

How the values were obtained:
[1] = not given; remark: listed apart in the source
[2] = parameters: method as in PMID 22583103; details: vs Ag/AgCl ref 28
[3] = not given; remark: listed apart in the source

log KCuL (Cu(II) complex, 0.15 M NaCl ref 28): 19.16 ^d
pCu (–log [Cu(II)]free, [L]tot = 10 μM, [Cu(II)]tot = 1 μM, column footnote c: 0.15 M NaCl ref 26): 18.5
log K1^H ([1]; 0.1 M (Me4N)(NO3) ref 25): 8.69
log K2^H ([1]; 0.1 M (Me4N)(NO3) ref 25): 6.18
log K3^H ([1]; 0.1 M (Me4N)(NO3) ref 25): 3.08
log K4^H ([1]; 0.1 M (Me4N)(NO3) ref 25): 2.33
log K1^H ([1]; 0.15 M NaCl ref 26): 9.00
log K2^H ([1]; 0.15 M NaCl ref 26): 6.30
log K3^H ([1]; 0.15 M NaCl ref 26): 3.06
log K4^H ([1]; 0.15 M NaCl ref 26): 2.59
SMILES: O=C(O)c1cccc(CNCCNCc2cccc(C(=O)O)n2)n1 [DEDPA^2–, 6,6′-((ethane-1,2-diylbis(azanediyl))bis(methylene))dipicolinic acid]

irreversible reduction peak [2]: −1.12 V
SMILES: O=C([O-])c1cccc(CNCCNCc2cccc(C(=O)[O-])n2)n1.[Cu+2] [[Cu(DEDPA)]]

stability in serum [3]: poor stability in serum
SMILES: O=C([O-])c1cccc(CNCCNCc2cccc(C(=O)[O-])n2)n1.[64Cu+2] [[^64Cu(DEDPA)]]
